Test results as given in patent publication US20220274967A1, “BCAT MODULATION” (Icagen, LLC, priority 2019, published 2022).

How the values were obtained:
[1] = target: T1, BCAT2 (Homo sapiens, UniProt O15382); assay: BCAT2 enzyme inhibition (human); assay type: biochemical
T1 sequence (O15382 28-392): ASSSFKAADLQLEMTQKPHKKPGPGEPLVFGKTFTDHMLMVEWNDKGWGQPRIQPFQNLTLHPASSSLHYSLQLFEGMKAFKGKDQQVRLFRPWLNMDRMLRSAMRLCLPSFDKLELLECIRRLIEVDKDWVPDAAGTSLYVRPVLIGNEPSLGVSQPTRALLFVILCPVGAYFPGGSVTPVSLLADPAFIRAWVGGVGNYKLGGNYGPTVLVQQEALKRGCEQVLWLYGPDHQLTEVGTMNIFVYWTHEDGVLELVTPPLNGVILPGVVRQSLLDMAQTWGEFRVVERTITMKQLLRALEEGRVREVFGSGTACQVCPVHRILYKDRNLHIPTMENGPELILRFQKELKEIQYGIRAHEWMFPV
Description: In further embodiments, the functional modulation of BCAT2 is assayed using a cell-free assay. In various embodiments, the cell-free assay is an enzyme-coupled fluorescent assay. For example, the disclosure contemplates use of an assay that monitors the production of L-glutamate from branch-chain amino acids and α-ketoglutarate through the coupling of hBCATm activity to two additional enzymes, L-Glutamate Oxidase (L-GOx) and Horseradish Peroxidase (HRP). Specifically, L-GOx catabolizes L-glutamate to generate α-ketoglutarate and […], the latter being utilized by HRP and leading to the formation of fluorescent resorufin from the redox-sensitive dye Amplex Red. In some embodiments, the test compound is classified as a candidate compound if a decrease in L-glutamate is measured. In further embodiments, the test compound is classified as a candidate compound if a decrease in α-ketoglutarate is measured.

[2] = test system: GM00371 cells; assay: Viability assay (Cell titer glo) in the 3-HIB assay; assay type: cell-based, human; settings: Homo sapiens, 24 h, read-out: 3HIB INHIBITION IC50 (μM) MEAN GM00371 cells Viablility Assay
Description: Cell Plating: Cells (Coriell Institute GM00371 cells) were plated (96-well clear bottom sterile plate; Greiner 655098) at 10,000 cells/0.1 mL in Eagle's minimum essential medium (EMEM)/15% FBS (Gibco 16000-044) with a Combi dispenser in a cell culture hood and incubated at 37° C. and 5% CO2 overnight.
Compound Dilution: Compound were prepared as 33.3× intermediate dilution in DMSO in 96 well round polystyrene plates. For 30 μM final maximum start with 30 μL of 10 mM in DMSO. 10-12 1:3 serial dilutions were prepared from left to right (20 μL+40 μL DMSO). A 10× secondary dilution was prepare in EMEM by taking 7.5 μL 33.3× and transfer to replicate 96 well round polystyrene plates and then adding 242.5 μL EMEM A 1× final dilution in EMEM was prepared by taking 50 μL 10× dilution and transferring to replicate 96 well polypropylene assay block (Costar 3956) and adding 450 μL EMEM A control was prepared for maximal compound inhibition by taking 20 μL 10 mM Reference Compound A and adding 40 μL DMSO for a concentration of 3.3 mM To 7.5 μL of the 3.3 mM Reference Compound A solution and added 242.5 μL EMEM to make a 100 μM solution. The subsequent Reference Compound A solution was diluted with EMEM to achieve a final concentration of 10 μM. The structure of Reference Compound A is:
A control was prepared for maximal compound toxicity by taking 7.5 μL Reference Compound B and 242.5 μL EMEM to make […]. 50 μL of that 100 μM Reference Compound B solution was combined with 450 μL EMEM to achieve a concentration of 30 μM. The structure of Reference Compound B is
Compound Treatment: Media was aspirated from the cells and 100 μL of D-PBS (ThermoFisher 14190144) was added and then removed. 100 μL of diluted compound was added to the cells in the place and the cells were incubated at 37° C. and 5% CO2 for 24 hours.
Viability Assay: To the cells remaining in the plate 25 μL D-PBS and 25 μL Cell titer glo reagent (Promega G7572). The plate was placed on a shaker for 2 minutes, incubated at room temperature in the dark and then read on a Clariostar microplate reader.

Row | IC50 [1] | SMILES | IC50 [2]
1 | > 1000 nM | C=CC(=O)N[C@H]1CCC[C@@H](n2c(-c3ccccn3)nc3cc(C(=O)NC)ccc32)C1 [Compound 106] | ≥ 1 µM
2 | > 1000 nM | C=CC(=O)NCc1ccc(C(=O)N[C@H]2CCC[C@@H](n3c(-c4ccccn4)nc4cc(C(=O)NC)ccc43)C2)s1 [Compound 108] | ≥ 1 µM
3 | > 1000 nM | C=CC(=O)Nc1ccc(C(=O)N[C@H]2CCC[C@@H](n3c(-c4ccccn4)nc4cc(C(=O)NC)ccc43)C2)s1 [Compound 110] | ≥ 1 µM
4 | > 1000 nM | CNC(=O)c1ccc2c(c1)nc(-c1ccccn1)n2[C@@H]1CCC[C@H](NC(=O)c2ccc(-c3ccccc3)s2)C1 [Compound 111] | ≥ 1 µM
5 | 100 to 500 nM | CNC(=O)c1ccc2c(c1)nc(-c1ccccn1)n2[C@@H]1CCC[C@H](NC(=O)c2ccc(Br)cc2)C1 [Compound 114] | 
6 | > 1000 nM | CNC(=O)c1ccc2c(c1)nc(-c1ccccn1)n2[C@@H]1CCC[C@H](NC(=O)c2ccccc2)C1 [Compound 115] | ≥ 1 µM
7 | > 1000 nM | COC(=O)c1ccc2c(c1)nc(-c1ccccn1)n2[C@@H]1CCC[C@H](NC(=O)c2cccs2)C1 [Compound 117] | ≥ 1 µM
8 | > 1000 nM | O=C(N[C@H]1CCC[C@@H](n2c(-c3ccccn3)nc3cc(CO)ccc32)C1)c1cccs1 [Compound 118] | ≥ 1 µM
9 | 100 to 500 nM | O=C(N[C@H]1CCC[C@@H](n2c(-c3ccccn3)nc3cc(CO)ccc32)C1)c1ccc(Br)s1 [Compound 119] | 
10 | > 1000 nM | CNC(=O)c1ccc2c(c1)nc(-c1ccccn1)n2[C@@H]1CCC[C@H](NC(=O)c2coc(Br)n2)C1 [Compound 120] | ≥ 1 µM
11 | > 1000 nM | CNC(=O)c1ccc2c(c1)nc(-c1ccccn1)n2[C@@H]1CCC[C@H](NC(=O)c2ccc(C(C)=O)s2)C1 [Compound 121] | ≥ 1 µM
12 | > 1000 nM | CNC(=O)c1ccc2c(c1)nc(-c1ccccn1)n2[C@@H]1CCC[C@H](NC(=O)c2ccc(C(=O)OC)s2)C1 [Compound 122] | ≥ 1 µM
13 | > 1000 nM | CNC(=O)c1ccc2c(c1)nc(-c1ccccn1)n2[C@@H]1CCC[C@H](NC(=O)c2ccc(Br)o2)C1 [Compound 125] | 
14 | 500 to 1000 nM | CNC(=O)c1ccc2c(c1)nc(-c1ccccc1NC(C)=O)n2[C@H]1CCC[C@@H](NC(=O)c2ccc(C#N)s2)C1 [Compound 130] | 
15 | 100 to 500 nM | CNC(=O)c1ccc2c(c1)nc(-c1ccccn1)n2[C@H]1CC[C@@H](NC(=O)c2ccc(Br)s2)C1 [Compound 132] | ≥ 1 µM
16 | < 100 nM | CNC(=O)c1ccc2c(c1)nc(-c1ccccc1C(N)=O)n2[C@H]1CCC[C@@H](NC(=O)c2ccc(C#N)s2)C1 [Compound 142] | ≥ 1 µM
17 | 500 to 1000 nM | CNC(=O)c1ccc2c(c1)nc(-c1ccccn1)n2C1CCCC(NC(=O)c2ccc(C3CC3)s2)C1 (stereo not drawn) [Compound 144] | ≥ 1 µM
18 | > 1000 nM | CNC(=O)c1ccc2c(c1)nc(-c1ccccn1)n2[C@H]1CCC[C@@H](NC(=O)c2ccc(C(C)C)s2)C1 [Compound 146] | ≥ 1 µM
19 | < 100 nM | CNC(=O)c1ccc2c(c1)nc(-c1cccc(C)n1)n2[C@H]1CCC[C@@H](NC(=O)c2ccc(Br)s2)C1 [Compound 148] | 
20 | > 1000 nM | CNC(=O)c1ccc2c(c1)nc(-c1ncccc1OC)n2[C@H]1CCC[C@@H](NC(=O)c2ccc(Br)s2)C1 [Compound 150] | 
21 | 500 to 1000 nM | CNC(=O)c1ccc2c(c1)nc(-c1ccc(C)cn1)n2[C@H]1CCC[C@@H](NC(=O)c2ccc(Br)s2)C1 [Compound 153] | 
22 | > 1000 nM | CNC(=O)c1ccc2c(c1)nc(-c1ccc(OC)c(OC)c1)n2[C@H]1CCC[C@@H](NC(=O)c2ccc(Br)s2)C1 [Compound 158] | 
23 | 100 to 500 nM | CNC(=O)c1ccc2c(c1)nc(-c1ccccc1N1CCOCC1)n2[C@H]1CCC[C@@H](NC(=O)c2ccc(Br)s2)C1 [Compound 159] | 

Row | IC50 [1] | SMILES | IC50 [2]
24 | > 1000 nM | CNC(=O)c1ccc2c(c1)nc(-c1ccc3c(c1)OC(F)(F)O3)n2[C@H]1CCC[C@@H](NC(=O)c2ccc(Br)s2)C1 [Compound 160] | 
25 | > 1000 nM | CNC(=O)c1ccc2c(c1)nc(-c1ccc(C#N)cc1)n2[C@H]1CCC[C@@H](NC(=O)c2ccc(Br)s2)C1 [Compound 162] | 
26 | 100 to 500 nM | CNC(=O)c1ccc2c(c1)nc(-c1ccc(Cl)cc1)n2[C@H]1CCC[C@@H](NC(=O)c2ccc(Br)s2)C1 [Compound 164] | 
27 | > 1000 nM | CNC(=O)c1ccc2c(c1)nc(-c1cccc(C#N)c1)n2[C@H]1CCC[C@@H](NC(=O)c2ccc(Br)s2)C1 [Compound 165] | 
28 | > 1000 nM | C#Cc1cccc(-c2nc3cc(C(=O)NC)ccc3n2[C@H]2CCC[C@@H](NC(=O)c3ccc(Br)s3)C2)c1 [Compound 167] | 
29 | 500 to 1000 nM | CNC(=O)c1ccc2c(c1)nc(-c1csc3c1CCCC3)n2[C@H]1CCC[C@@H](NC(=O)c2ccc(Br)s2)C1 [Compound 168] | 
30 | 500 to 1000 nM | CNC(=O)c1ccc2c(c1)nc(-c1ccc(C)cc1)n2[C@H]1CCC[C@@H](NC(=O)c2ccc(Br)s2)C1 [Compound 170] | 
31 | 100 to 500 nM | CNC(=O)c1ccc2c(c1)nc(-c1ccc(C)s1)n2[C@H]1CCC[C@@H](NC(=O)c2ccc(Br)s2)C1 [Compound 171] | 
32 | 100 to 500 nM | CNC(=O)c1ccc2c(c1)nc(-c1cc(Cl)ccc1O)n2[C@H]1CCC[C@@H](NC(=O)c2ccc(C#N)s2)C1 [Compound 179] | 
33 | > 1000 nM | CNC(=O)c1ccc2c(c1)nc(-c1cc(Cl)cc(C)c1O)n2[C@H]1CCC[C@@H](NC(=O)c2ccc(Br)s2)C1 [Compound 182] | 
34 | 100 to 500 nM | CNC(=O)c1ccc2c(c1)nc(-c1ccc(O)cn1)n2[C@H]1CCC[C@@H](NC(=O)c2ccc(Br)s2)C1 [Compound 186] | 
35 | > 1000 nM | CNC(=O)c1ccc2c(c1)nc(-c1ccc(C#N)c(Cl)n1)n2[C@H]1CCC[C@@H](NC(=O)c2ccc(C#N)s2)C1 [Compound 187] | 
36 | 100 to 500 nM | CNC(=O)c1ccc2c(c1)nc(-c1cc(Cl)ccc1O)n2[C@H]1CCC[C@@H](NC(=O)c2ccc(Cl)s2)C1 [Compound 190] | 
37 | > 1000 nM | CNC(=O)c1ccc2c(c1)nc(-c1ccc(O)cn1)n2[C@H]1CCC[C@@H](NC(=O)c2ccc(Cl)s2)C1 [Compound 191] | 
38 | < 100 nM | CNC(=O)c1cc2nc(-c3cccc(F)c3O)n([C@H]3CCC[C@@H](NC(=O)c4ccc(Br)s4)C3)c2cc1F [Compound 209] | 0.1 to 0.5 µM
39 | < 100 nM | CNC(=O)c1cc2nc(-c3sccc3C)n([C@H]3CCC[C@@H](NC(=O)c4ccc(Br)s4)C3)c2cc1F [Compound 210] | ≥ 1 µM
40 | < 100 nM | CNC(=O)c1cc2nc(-c3ccccn3)n([C@H]3CCC[C@@H](NC(=O)c4ccc(Br)s4)C3)c2cc1OC [Compound 211] | 0.1 to 0.5 µM
41 | < 100 nM | CNC(=O)c1cc2nc(-c3ccccc3F)n([C@H]3CCC[C@@H](NC(=O)c4ccc(Cl)s4)C3)c2cc1OC [Compound 212] | < 0.1 µM
42 | > 1000 nM | CNC(=O)c1ccc2c([C@H]3CCC[C@H](NC(=O)c4ccc(-c5ccccc5)s4)C3)c(-c3ccccc3)[nH]c2c1 [Compound 282] | 
43 | > 1000 nM | COC(=O)c1ccc2c(n1)nc(-c1ccccn1)n2[C@H]1CCC[C@@H](NC(=O)c2cccs2)C1 [Compound 300] | 
44 | 100 to 500 nM | COC(=O)c1ccc2c(n1)nc(-c1ccccn1)n2[C@@H]1CCC[C@H](NC(=O)c2ccc(Br)s2)C1 [Compound 301] | 
45 | > 1000 nM | CNC(=O)c1ccc2c(n1)nc(-c1ccccn1)n2[C@@H]1CCC[C@H](NC(=O)c2ccc(Br)s2)C1 [Compound 305] | 
